Two compounds from patent publication EP2488183B1, “Composition for inhibiting TGF-beta comprising imidazopurine derivatives” (Korea Institute of Radiological & Medical Sciences, priority 2009, dated 2011) can be followed below.

Data set [1] deals with H1299 cells. Nature of the data set: Apoptosis alone or with radiation, Annexin-PI staining and FACS assay. The class given is cell-based. To be noted: 48 h; for effect on apoptosis together with radiation compared to compound or radiation alone: H1299, 6 Gy. The procedure: H1299, a cell strain of lung cancer, which is generally treated by radiation therapy, was treated with radiation in combination with compound I or II, and apoptosis thereof was measured. Compound I or II was added to H1299 cells inoculated to a 6 cm cell incubation plate as described in Example 3, and two hours later, 6 Gy of radioactive rays were irradiated thereto, and 48 hours later, apoptosis was measured by Annexin-PI staining and FACS assay. […] Table 2 [Table 2]
On the technique in general: Flow cytometry measures light scatter and fluorescence of single cells or particles in a stream.

Data set [2] has as its system IMR-90 cells. In words: Western blotting of fibrosis markers in TGF-β-treated lung fibrocytes. To be noted: IMR-90, 0, 1, 5 and 10 µM added 2 h before TGF-β (5 ng/ml), 24 h; FIG. 7a. It counts as cell-based, human. On the procedure: (§1) IMR-90 cells, human normal lung fibrocytes, were purchased from American Type Culture Collection (ATCC, U.S.A.), and were incubated under 5% CO2 and at a temperature of 37°C for 24 hours in a modified Eagle's medium (MEM) supplemented with 10% FBS serum, 100 units/ml of penicillin, and 100 µg/ml of streptomycin, 1 mM sodium pyruvate, and 0.1 mM non-essential amino acids. Then, two hours before treatment with TGF-β (5ng/ml), compound I was added to the cell culture at a varying concentration (0, 1, 5 and 10 µM) and then, the IMR-90 cells were incubated for 24 hours. Then, as described in Example 2, western blotting was performed to identify inhibition of differentiation of lung fibrocytes by compound I based on expression levels of α-SMA and fibronectin, which are fibrosis marker molecules. […] Also, in extracellular matrix, the amount of collagen, which is one of important materials regarding fibrosis, was measured according to the specification of the manufacturer by using a collagen Sircol assay kit (Biocolor, England).
(In western blotting, separated proteins are transferred to a membrane and probed.)

The test system of data set [3] is IMR-90 cells. In words: Collagen amount in irradiated lung fibrocytes. The class given is cell-based, human. The settings on record: IMR-90, 10 µM, 2 h before 4 Gy radiation, 48 h; FIG. 7d. On the procedure:
(§2) In order to identify whether compound I inhibits radiation-induced fibrosis, instead of external stimulation by TGF-β radiation that can internally engogenously increase TGF-β was employed to induce fibrosis. IMR-90 cells were incubated as described in (1) above and the IMR-90 cells were inoculated to a 6 cm plate containing a modified Eagle's medium (MEM) supplemented with 10% FBS serum, 100 units/ml of penicillin, and 100 µg/ml of streptomycin, 1 mM sodium pyruvate, and 0.1 mM non-essential amino acids. Then, compound I at a concentration of 10 µM was added thereto and the IMR-90 cells were incubated for 2 hours, and then, 4 Gy radiation was applied thereto. 48 hours later, the IMR-90 cells were collected. Then, fibrosis makers as described in Example 2 were identified from the IMR-90 cells by western blotting.

In data set [4] the test system is IMR-90 cells. Nature of the data set: Collagen Sircol assay in TGF-β-treated lung fibrocytes. To be noted: IMR-90, TGF-β (5 ng/ml), 0, 1, 5 and 10 µM; FIG. 7b. The class given is cell-based, human. The procedure:
as §1

In data set [5] the test system is HSC-T6 cells. In words: Serum-induced proliferation of hepatic stellate cells, CCK-8 assay. It counts as cell-based, human. To be noted: added 2 h before serum, 48 h. On the procedure:
HSC-T6 cells, a stable cell line made by professor S.L. Friedman at Mount Sinai in U.S. A., were obtained and used as hepatic stellate cells (HSC), which are employed mainly as a subject for liver fibrosis. HSC-T6 cells were c under 5% CO2 at a temperature of 37°C in a DMEM supplemented with 10% FBS, 100 units/ml of penicillin, and 100 µg/ml of streptomycin. In order to identify whether compounds I and II directly affect proliferation of hepatic stellate cells, the incubation was performed in a serum-free medium for 24 hours and then the culture was treated with 1, 10, and 20 µM of the compounds I and II, 2 hours prior to addition of serum thereto. Subsequently, under the condition described above, the incubation was further performed for 48 hours and then a CCK-8 assay kit was used to measure cell viability. Absorbance was measured at a wavelength of 450 nm by using a spectrophotometer (Labsystems, U.S.A.) to count the number of cells.

The subject of data set [6] is U87-MG. Nature of the data set: Apoptosis of brain cancer cells alone or with doxorubicin, CCK-8 viability assay. It counts as cell-based. The settings on record: 48 h; for apoptosis effect together with doxorubicin: compound added 2 h before doxorubicin 0.05 µM; for apoptosis: compound alone at 5 µM or more, FIGS. 9b, 9d. The procedure: TGF-βis known to have contrasting effects related to a tumor. That is, at an initial stage, TGF-β suppresses tumor growth, but at a latter stage, promotes metastasis or infiltration of a tumor. Thus, apoptosis of tumor cell lines caused by compound I and II, and apoptosis of tumor cell lines caused by compound I or II in combination with doxorubicin, an anti-cancer agent, were measured. […] The tumor cells were treated with compound I or II at the concentrations shown in FIG. 9, and 2 hours later, doxorubicin was added thereto. Then, the cells were incubated for 48 hours under the conditions described above and then, quantified using a CCK-8 viability assay kit (Dojindo, Japan).

The test system of data set [7] is IMR-90 cells. Nature of the data set: Western blotting of fibrosis markers in irradiated lung fibrocytes. The settings on record: IMR-90, 10 µM, 2 h before 4 Gy radiation, 48 h; FIG. 7c. The class given is cell-based, human. On the procedure:
as §2

The test system of data set [8] is HEK 293 cells. In words: Cytotoxicity test, CCK-8 assay. The class given is cell-based, human. To be noted: CCK-8, absorbance 450 nm, FIGS. 4a, 4b. The procedure: In order to confirm that the luciferase activity is inhibited due to TGF-β inhibitor, rather than apoptosis, a CCK-8 survival rate assay kit (Dojindo, Japan) was used and an absorbance was measured at a wavelength of 450 nm by using a spectrophotometer (Labsystems, U.S.A.) to count the number of cells. The shown values are average values obtained from three independent experiments.

The mark [9] stands for this setting: H1299, compound 5 µM + radiation (6 Gy) 2 h later.

Consider `Cc1cn2c(nc3c2c(=O)n(Cc2ccccc2Cl)c(=O)n3C)[nH]1` [compound I, 3-(2-chlorobenzyl)-1,7-dimethyl-1H-imidazo[2,1-f]purine-2,4(3H,8H)-dion], for which the “effect on apoptosis together with radiation compared to compound or radiation alone” value in data set [1] is on record as “synergistic effect on apoptosis”. For the same compound, the “Apoptosis (%, average±SEM)” value in data set [1] (setting [9]) is given as 73.42±1.84%; in data set [1] (H1299, compound 5 µM alone), 20.86±1.03%. Further, the “fibrosis in human lung fibrocytes (expression levels of α-SMA and fibronectin)” value in data set [2] is “concentration-dependently decreased fibrosis”. Besides, the amount of collagen result in data set [3] was “reduced to a level similar to that in the no-treatment control group”; in data set [4], “concentration-dependently reduced the amount of collagen”. Further, the “proliferation of hepatic stellate cells” value in data set [5] (1, 10 and 20 µM, FIG. 5a) is on record as “almost completely blocked”. In data set [6], the “apoptosis effect together with doxorubicin” value was “additive or synergistic apoptosis effects”. Also, the apoptosis result in data set [6] was “did not occur”. Moreover, the “expressions of α-SMA and fibronectin” value in data set [7] is reported as “significantly reduced”. The “cell count (cytotoxicity)” value in data set [8] is recorded as “no significant decrease in the cell count”.
In the case of `Cc1[nH]c2nc3c(c(=O)n(Cc4c(F)cccc4Cl)c(=O)n3C)n2c1C` [compound II, 3-(2-chloro-6-fluorobenzyl)-1,6,7-trimethyl-1H-imidazo[2,1-f]purine-2,4(3H,8H)-dion], the “effect on apoptosis together with radiation compared to compound or radiation alone” value in data set [1] is recorded as “synergistic effect on apoptosis”. The “Apoptosis (%, average±SEM)” value in data set [1] (setting [9]) was determined as 55.91±5.58%. Besides, the “Apoptosis (%, average±SEM)” value in data set [1] (H1299, compound 5 µM alone) worked out at 14.79±0.78%. Besides, the inhibition at 1 µM in data set [5] (Homo sapiens, HSC-T6, 1 µM, FIG. 5b, read-out: proliferation of hepatic stellate cells inhibited) was determined as 12%. Further, the inhibition at 10 µM in data set [5] (Homo sapiens, HSC-T6, 10 µM, FIG. 5b, read-out: proliferation of hepatic stellate cells inhibited) was 25%. Also, the inhibition at 20 µM in data set [5] (Homo sapiens, HSC-T6, 20 µM, FIG. 5b, read-out: proliferation of hepatic stellate cells inhibited) was found to be 30%. In addition, in data set [6], the “apoptosis effect together with doxorubicin” value is on record as “additive or synergistic apoptosis effects” and the apoptosis entry is “did not occur”. For the same compound, the “cell count (cytotoxicity)” value in data set [8] is “no significant decrease in the cell count”.
